“And” between values parts separate entries of the source, which are not always exact repeats. Identical values can stand only once. Inconclusive results and toxic doses are left out.
System: P388 leukemia ip, CD2F1 mice, survival T/C
Experiment: NCI In Vivo Anticancer Drug Screen. Data for tumor model P388 Leukemia (intraperitoneal) in CD2F1 (CDF1) mice
Details: endpoint: median survival time, higher = longer survival
Method in brief: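 Mice carrying the transplanted tumor received test compound or vehicle. Survival was recorded in each group, and the value is the treated-group measurement divided by that of the vehicle-treated control group.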

**Q.** Which results are given for `COc1cccc2c1C(=O)c1c(O)c3c(c(O)c1C2=O)C[C@@](O)(C(C)=O)C[C@@H]3OC1CC(N)C(O)C(C)O1` (stereo partly drawn)?
**A.** T/C (dose: 0.06 mg/kg/injection, schedule: Q01DX009 (ip), vehicle: water): 104 % of control and 118 % of control; T/C (dose: 0.06 mg/kg/injection, schedule: Q03HX008 (ip), vehicle: saline): 118 % of control; T/C (dose: 0.08 mg/kg/injection, schedule: Q01DX005 (ip), vehicle: saline): 118 % of control; T/C (dose: 0.12 mg/kg/injection, schedule: Q01DX005 (ip), vehicle: water): 114 % of control; T/C (dose: 0.13 mg/kg/injection, schedule: Q03HX008 (ip), vehicle: saline): 120 % of control; T/C (dose: 0.16 mg/kg/injection, schedule: Q01DX005 (ip), vehicle: saline): 150 % of control and 167 % of control; T/C (dose: 0.16 mg/kg/injection, schedule: Q01DX009 (ip), vehicle: saline): 168 % of control; T/C (dose: 0.21 mg/kg/injection, schedule: Q01DX009 (ip), vehicle: water): 150 % of control; T/C (dose: 0.25 mg/kg/injection, schedule: Q01DX005 (ip), vehicle: water): 112 % of control; T/C (dose: 0.25 mg/kg/injection, schedule: Q04DX003 (ip), vehicle: saline): 100 % of control; T/C (dose: 0.32 mg/kg/injection, schedule: Q01DX001 (ip), vehicle: saline): 150 % of control; T/C (dose: 0.32 mg/kg/injection, schedule: Q01DX005 (ip), vehicle: saline): 175 % of control; T/C (dose: 0.32 mg/kg/injection, schedule: Q01DX009 (ip), vehicle: saline): 166 % of control; T/C (dose: 0.32 mg/kg/injection, schedule: Q03HX040 (ip), vehicle: saline): 116 % of control; T/C (dose: 0.39 mg/kg/injection, schedule: Q01DX009 (ip), vehicle: saline): 172 % of control; T/C (dose: 0.42 mg/kg/injection, schedule: Q01DX009 (ip), vehicle: water): 150 % of control and 155 % of control; T/C (dose: 0.5 mg/kg/injection, schedule: Q01DX001 (ip), vehicle: saline): 108 % of control; T/C (dose: 0.5 mg/kg/injection, schedule: Q01DX005 (ip), vehicle: water): 107 % of control; T/C (dose: 0.5 mg/kg/injection, schedule: Q01DX005 (oral), vehicle: water): 105 % of control; T/C (dose: 0.5 mg/kg/injection, schedule: Q01DX010 (ip), vehicle: saline): 163 % of control; T/C (dose: 0.5 mg/kg/injection, schedule: Q04DX003 (ip), vehicle: saline): 109 % of control; T/C (dose: 0.63 mg/kg/injection, schedule: Q01DX001 (ip), vehicle: saline): 166 % of control; T/C (dose: 0.63 mg/kg/injection, schedule: Q01DX009 (ip), vehicle: saline): 171 % of control; T/C (dose: 0.63 mg/kg/injection, schedule: Q03HX040 (ip), vehicle: saline): 112 % of control; T/C (dose: 0.64 mg/kg/injection, schedule: Q01DX001 (ip), vehicle: saline): 160 % of control; T/C (dose: 0.75 mg/kg/injection, schedule: Q04DX003 (ip), vehicle: saline): 110 % of control and 119 % of control; T/C (dose: 0.83 mg/kg/injection, schedule: Q01DX009 (ip), vehicle: water): 164 % of control and 169 % of control; T/C (dose: 1.0 mg/kg/injection, schedule: Q01DX001 (ip), vehicle: saline): 115 % of control; T/C (dose: 1.0 mg/kg/injection, schedule: Q01DX005 (oral), vehicle: water): 102 % of control; T/C (dose: 1.0 mg/kg/injection, schedule: Q01DX010 (ip), vehicle: saline): 172 % of control; T/C (dose: 1.0 mg/kg/injection, schedule: Q04DX002 (ip), vehicle: water): 158 % of control; T/C (dose: 1.0 mg/kg/injection, schedule: Q04DX003 (iv), vehicle: saline): 98 % of control; T/C (dose: 1.08 mg/kg/injection, schedule: Q01DX009 (ip), vehicle: saline): 172 % of control; T/C (dose: 1.08 mg/kg/injection, schedule: Q04DX003 (ip), vehicle: saline): 150 % of control and 152 % of control; T/C (dose: 1.08 mg/kg/injection, schedule: Q04DX003 (ip), vehicle: water): 157 % of control; T/C (dose: 1.25 mg/kg/injection, schedule: Q01DX001 (ip), vehicle: saline): 154 % of control; T/C (dose: 1.25 mg/kg/injection, schedule: Q01DX005 (ip), vehicle: saline): 162 % of control; T/C (dose: 1.25 mg/kg/injection, schedule: Q03HX008 (ip), vehicle: saline): 167 % of control; T/C (dose: 1.3 mg/kg/injection, schedule: Q01DX001 (ip), vehicle: water): 154 % of control; T/C (dose: 1.5 mg/kg/injection, schedule: Q04DX003 (ip), vehicle: saline): 116 % of control and 117 % of control; T/C (dose: 1.67 mg/kg/injection, schedule: Q01DX009 (ip), vehicle: water): 123 % of control; T/C (dose: 1.8 mg/kg/injection, schedule: Q01DX001 (ip), vehicle: water): 162 % of control; T/C (dose: 1.8 mg/kg/injection, schedule: Q01DX009 (ip), vehicle: saline): 163 % of control; T/C (dose: 1.8 mg/kg/injection, schedule: Q04DX003 (ip), vehicle: saline): 154 % of control; T/C (dose: 1.8 mg/kg/injection, schedule: Q04DX003 (ip), vehicle: water): 160 % of control; T/C (dose: 2.0 mg/kg/injection, schedule: Q01DX001 (ip), vehicle: saline): 114 % of control; T/C (dose: 2.0 mg/kg/injection, schedule: Q01DX005 (ip), vehicle: water): 153 % of control; T/C (dose: 2.0 mg/kg/injection, schedule: Q01DX005 (oral), vehicle: water): 114 % of control; T/C (dose: 2.0 mg/kg/injection, schedule: Q03HX024 (ip), vehicle: saline): 156 % of control; T/C (dose: 2.0 mg/kg/injection, schedule: Q04DX003 (iv), vehicle: saline): 102 % of control; T/C (dose: 2.4 mg/kg/injection, schedule: Q01DX001 (ip), vehicle: water): 163 % of control; T/C (dose: 2.5 mg/kg/injection, schedule: Q03HX008 (ip), vehicle: saline): 170 % of control; T/C (dose: 3.0 mg/kg/injection, schedule: Q01DX001 (ip), vehicle: saline): 150 % of control and 153 % of control; T/C (dose: 3.0 mg/kg/injection, schedule: Q01DX009 (ip), vehicle: saline): 104 % of control; T/C (dose: 3.2 mg/kg/injection, schedule: Q01DX001 (ip), vehicle: water): 171 % of control; T/C (dose: 4.0 mg/kg/injection, schedule: Q01DX001 (ip), vehicle: saline): 160 % of control; T/C (dose: 4.0 mg/kg/injection, schedule: Q01DX004 (ip), vehicle: saline): 99 % of control; T/C (dose: 4.0 mg/kg/injection, schedule: Q01DX005 (ip), vehicle: water): 164 % of control; T/C (dose: 4.0 mg/kg/injection, schedule: Q01DX005 (oral), vehicle: water): 104 % of control; T/C (dose: 4.0 mg/kg/injection, schedule: Q04DX003 (iv), vehicle: saline): 104 % of control and 113 % of control and 121 % of control; T/C (dose: 4.2 mg/kg/injection, schedule: Q01DX001 (ip), vehicle: water): 174 % of control; T/C (dose: 4.5 mg/kg/injection, schedule: Q01DX001 (ip), vehicle: saline): 166 % of control; T/C (dose: 4.5 mg/kg/injection, schedule: Q04DX003 (ip), vehicle: saline): 159 % of control; T/C (dose: 5.0 mg/kg/injection, schedule: Q01DX001 (ip), vehicle: saline): 159 % of control and 174 % of control; T/C (dose: 5.0 mg/kg/injection, schedule: Q01DX009 (ip), vehicle: water): 100 % of control; T/C (dose: 5.0 mg/kg/injection, schedule: Q04DX003 (ip), vehicle: saline): 118 % of control; T/C (dose: 5.0 mg/kg/injection, schedule: Q04DX003 (ip), vehicle: water): 118 % of control; T/C (dose: 5.6 mg/kg/injection, schedule: Q01DX001 (ip), vehicle: water): 106 % of control; T/C (dose: 6.0 mg/kg/injection, schedule: Q04DX003 (ip), vehicle: saline): 122 % of control; T/C (dose: 7.5 mg/kg/injection, schedule: Q01DX001 (ip), vehicle: water): 116 % of control; T/C (dose: 8.0 mg/kg/injection, schedule: Q01DX001 (ip), vehicle: saline): 124 % of control; T/C (dose: 8.0 mg/kg/injection, schedule: Q01DX005 (oral), vehicle: water): 102 % of control; T/C (dose: 8.0 mg/kg/injection, schedule: Q04DX003 (iv), vehicle: saline): 150 % of control; T/C (dose: 10.0 mg/kg/injection, schedule: Q01DX009 (ip), vehicle: water): 100 % of control; T/C (dose: 12.0 mg/kg/injection, schedule: Q04DX003 (ip), vehicle: saline): 150 % of control; T/C (dose: 12.5 mg/kg/injection, schedule: Q04DX003 (ip), vehicle: saline): 115 % of control; T/C (dose: 16.0 mg/kg/injection, schedule: Q01DX005 (oral), vehicle: water): 103 % of control; T/C (dose: 16.0 mg/kg/injection, schedule: Q04DX003 (iv), vehicle: saline): 104 % of control; T/C (dose: 20.0 mg/kg/injection, schedule: Q01DX009 (ip), vehicle: water): 110 % of control; T/C (dose: 0.3 micrograms/kg/injection, schedule: Q03HX008 (ip), vehicle: saline): 123 % of control; T/C (dose: 0.6 micrograms/kg/injection, schedule: Q03HX040 (ip), vehicle: saline): 109 % of control; T/C (dose: 7.5 micrograms/kg/injection, schedule: Q03HX024 (ip), vehicle: saline): 155 % of control; T/C (dose: 16.3 micrograms/kg/injection, schedule: Q03HX024 (ip), vehicle: saline): 165 % of control

Source: PubChem BioAssay AID330 (DTP/NCI, 2004)
